Assays:
Alopecurus myosuroides = test: Post-emergence weed control, pot trial; assay type: in vivo; conditions: post-emergence (BBCH 11-12), 27 DAA, scale 0-100
Procedure: (§1) The following plant species were selected for the tests:
(§2) The seeds of the abovementioned biotypes were sown in 8 cm pots (LSI; pH 7.4; % C org 2.2). The temperature was kept at about 23°/15° C. day/night. After the herbicides had been applied (300 l water/ha), the pots were irrigated from beneath as required. Two trials were conducted. In a pre-emergence trial, the herbicides were applied directly after sowing at the BBCH 00 growth stage. In a post-emergence trial, the herbicides were deployed at the BBCH 11-12 growth stage.
(§3) The active herbicidal ingredient cinmethylin was used as commercial emulsifiable concentrate (EC) LUMIMAX. Ethofumesate was used in the form of the commercial suspension concentrate (SC) Nortron. A methylated seed oil (Mero) was added to the spray liquids in an amount of 1 l/ha in order to assure good retention characteristics.
(§4) The percentage of weed control (2 repetitions) was rated 27 days after the application of herbicide (DAA) on a scale of 0-100. A rating of 0 means no control, and 100 means complete control.
(§5) According to Colby, synergistic effects of active herbicidal ingredients are indicated when the measured efficacy is higher than that expected, which is calculated by its formula for 2-substance mixtures: EC=A+B−(A×B)/100

Abuthilon theophrasti = test: Post-emergence weed control, pot trial; assay type: in vivo; conditions: post-emergence (BBCH 11-12), 27 DAA, scale 0-100
Procedure: as §1, §2, §3, §4, §5

Lolium rigidum = test: Post-emergence weed control, pot trial; assay type: in vivo; conditions: post-emergence (BBCH 11-12), 27 DAA, scale 0-100
Procedure: as §1, §2, §3, §4, §5

Avena fatua = test: Pre-emergence weed control, pot trial; assay type: in vivo; conditions: pre-emergence (BBCH 00), 27 DAA, scale 0-100
Procedure: as §1, §2, §3, §4, §5

Veronica persica = test: Pre-emergence weed control, pot trial; assay type: in vivo; conditions: pre-emergence (BBCH 00), 27 DAA, scale 0-100
Procedure: as §1, §2, §3, §4, §5

MATIN [1] = test: Pre-emergence weed control, pot trial; assay type: in vivo, Matricaria inodora; conditions: pre-emergence (BBCH 00), 27 DAA, scale 0-100
Procedure: as §1, §2, §3, §4, §5

MATIN [2] = test: Post-emergence weed control, pot trial; assay type: in vivo, Matricaria inodora; conditions: post-emergence (BBCH 11-12), 27 DAA, scale 0-100
Procedure: as §1, §2, §3, §4, §5

CCOC1Oc2ccc(OS(C)(=O)=O)cc2C1(C)C (centres unmarked) [Ethofumesate]
Efficacy (percentage of weed control) ALOMY (Alopecurus myosuroides; 20 g ai/ha): 0%
Efficacy (percentage of weed control) ABUTH (Abuthilon theophrasti; 20 g ai/ha): 0%
Efficacy (percentage of weed control) LOLRI (Lolium rigidum; 20 g ai/ha): 0%
Efficacy (percentage of weed control) AVEFA (Avena fatua; 20 g ai/ha): 0%
Efficacy (percentage of weed control) VERPE (Veronica persica; 10 g ai/ha): 0%
Efficacy (percentage of weed control) MATIN (MATIN [1]; 10 g ai/ha): 0%
Efficacy (percentage of weed control) MATIN (MATIN [2]; 50 g ai/ha): 10%

Cc1ccccc1CO[C@@H]1C[C@]2(C(C)C)CC[C@@]1(C)O2 (racemic) [Cinmethylin, (+/−)-2-exo-(2-methylbenzyloxy)-1-methyl-4-isopropyl-7-oxabicyclo[2.2.1]heptane]
Efficacy (percentage of weed control) ALOMY (Alopecurus myosuroides; 100 g ai/ha): 78%
Efficacy (percentage of weed control) ABUTH (Abuthilon theophrasti; 100 g ai/ha): 35%
Efficacy (percentage of weed control) LOLRI (Lolium rigidum; 100 g ai/ha): 63%
Efficacy (percentage of weed control) AVEFA (Avena fatua; 100 g ai/ha): 70%
Efficacy (percentage of weed control) VERPE (Veronica persica; 50 g ai/ha): 20%
Efficacy (percentage of weed control) MATIN (MATIN [1]; 50 g ai/ha): 70%
Efficacy (percentage of weed control) MATIN (MATIN [2]; 25 g ai/ha): 20%

From US20240284906A1, “HERBICIDAL COMPOSITIONS CONTAINING CINMETHYLINE AND ETHOFUMESATE” (BAYER AKTIENGESELLSCHAFT, priority 2021, published 2024)
